# Results reported in patent publication US20250215029A1 (Recludix Pharma, Inc., priority 2022, published 2025).
# Like-named read-outs stand apart in the source and are kept apart here.
# What was measured:
# [1] = target: T1, Recombinant STAT3 protein (STAT3 (G127-I722)) (Homo sapiens, UniProt P40763); experiment: STAT3 Fluorescence Polarization (FP) Assay; assay type: binding; settings: probe 5-FAM-GpYLPQTV-NH2 2 nM, 45-minute incubation
# T1 construct: Recombinant STAT3 protein (STAT3 (G127-I722))
# T1 sequence (P40763 127-722): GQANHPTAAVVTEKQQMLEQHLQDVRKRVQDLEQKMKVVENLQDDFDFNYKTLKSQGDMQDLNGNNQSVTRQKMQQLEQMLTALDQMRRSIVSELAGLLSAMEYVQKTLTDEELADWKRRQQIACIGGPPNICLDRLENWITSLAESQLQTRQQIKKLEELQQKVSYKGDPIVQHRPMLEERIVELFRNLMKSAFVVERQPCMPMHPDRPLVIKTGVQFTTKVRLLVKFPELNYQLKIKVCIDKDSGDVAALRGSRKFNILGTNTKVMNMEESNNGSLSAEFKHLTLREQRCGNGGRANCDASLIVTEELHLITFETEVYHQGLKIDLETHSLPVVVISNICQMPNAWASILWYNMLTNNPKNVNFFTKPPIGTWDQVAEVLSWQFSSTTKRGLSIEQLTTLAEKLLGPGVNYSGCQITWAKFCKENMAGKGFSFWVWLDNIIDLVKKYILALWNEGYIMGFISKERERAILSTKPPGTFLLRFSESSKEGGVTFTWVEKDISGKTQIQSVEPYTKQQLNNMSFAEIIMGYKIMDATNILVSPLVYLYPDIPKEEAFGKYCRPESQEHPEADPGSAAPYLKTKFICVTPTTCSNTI
# Summary of the method: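 Displacement of a fluorescent phosphotyrosine peptide (5-FAM-GpYLPQTV-NH2, 2 nM) from 25 nM recombinant STAT3 G127-I722 was monitored by FP after 45 min at room temperature.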
# [2] = target: T2, Recombinant STAT6 protein (STAT6 (W123-T658)) (Homo sapiens, UniProt P42226); experiment: STAT6 Fluorescence Polarization (FP) Assay; assay type: binding; settings: 45-minute incubation
# T2 construct: Recombinant STAT6 protein (STAT6 (W123-T658))
# T2 sequence (P42226 123-658): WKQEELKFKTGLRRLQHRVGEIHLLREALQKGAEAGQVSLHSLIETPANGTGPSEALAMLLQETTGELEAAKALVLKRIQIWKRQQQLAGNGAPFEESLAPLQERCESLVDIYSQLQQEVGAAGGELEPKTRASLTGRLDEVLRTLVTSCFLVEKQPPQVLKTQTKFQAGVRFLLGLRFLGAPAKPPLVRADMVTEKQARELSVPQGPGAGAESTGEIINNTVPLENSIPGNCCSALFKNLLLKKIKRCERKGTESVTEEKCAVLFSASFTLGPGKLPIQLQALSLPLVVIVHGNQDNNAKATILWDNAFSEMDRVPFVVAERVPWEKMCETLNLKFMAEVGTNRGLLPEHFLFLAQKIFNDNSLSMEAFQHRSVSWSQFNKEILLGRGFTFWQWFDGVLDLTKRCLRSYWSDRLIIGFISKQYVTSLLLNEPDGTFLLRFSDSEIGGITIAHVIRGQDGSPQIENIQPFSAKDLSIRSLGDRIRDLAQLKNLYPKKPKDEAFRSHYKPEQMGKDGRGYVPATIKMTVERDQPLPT
# Summary of the method: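 Protein-probe mix (250 nM STAT6 W123-T658, 2 nM 5-FAM-pTyr peptide) in 10 mM HEPES pH 7.4, 50 mM NaCl, 1 mM EDTA, 0.05% Tween 20, 2 mM DTT; added to compound dilution series, 1% DMSO final; 45 min RT; FP read; IC50 via nonlinear regression.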
# [3] = STAT3 (G127-I722) 25 nM, read-out: STAT3 (FP assay IC50 class)
# [4] = STAT6 (W123-T658) 250 nM, probe 5-FAM-Ap[…]-NH2 2 nM, read-out: STAT6 (FP assay IC50 class)
# [5] = STAT3 25 nM, read-out: STAT3 (FP assay IC50)
# [6] = STAT6 250 nM, probe 5-FAM-Ap[…]-NH2 2 nM, read-out: STAT6 (FP assay IC50)
"IC50 [1, 3] [µM]","IC50 [2, 4] [µM]","IC50 [1, 5] [µM]","IC50 [2, 6] [µM]",SMILES,"IC50 ([2]; STAT6 (W123-T658) 250 nM, probe 5-FAM-ApYKPFQDLI-NH2 2 nM, read-out: STAT6 (FP assay IC50 class)) [µM]"
1 to 10,0.3 to 3,–,–,"N#C[C@@H]1CN(C(=O)[C@@H]2C[C@@H](O)[C@@H]3CCCCC[C@H](NC(=O)c4cc5cc(C(F)P(=O)(O)O)ccc5s4)C(=O)N23)C[C@H]1c1ccccc1 (relative stereo) [Compound 553, ((2-(((1R,3S,6S,11aS)-3-((rel-trans)-3-cyano-4-phenylpyrrolidine-1-carbonyl)-1-hydroxy-5-oxodecahydro-1H-pyrrolo[1,2-a]azonin-6-yl)carbamoyl)benzo[b]thiophen-5-yl)fluoromethyl)phosphonic acid]",–
< 0.1,3 to 30,–,–,"O=C(N[C@H]1CCC[C@H]2CC[C@@H](C(=O)N3CC(c4cnccc4N4CCOCC4)C3)N2C1=O)c1cc2cc(C(F)P(=O)(O)O)ccc2s1 (stereo partly drawn) [Compound 626, (fluoro(2-(((3S,6S,9aS)-3-(3-(4-morpholinopyridin-3-yl)azetidine-1-carbonyl)-5-oxooctahydro-1H-pyrrolo[1,2-a]azepin-6-yl)carbamoyl)benzo [b]thiophen-5-yl)methyl) phosphonic acid]",–
–,–,1 to 10,0.3 to 3,CN(C(=O)[C@@H]1CC[C@@H]2C/C=C\C[C@H](NC(=O)c3cc4cc(C(F)(F)P(=O)(O)O)ccc4[nH]3)C(=O)N21)c1ccccc1 [Compound 30],–
1 to 10,0.3 to 3,–,–,"O=C(N[C@H]1CCCC[C@H]2CC[C@@H](C(=O)N3CCCC34CC4)N2C1=O)c1cc2cc(C(F)(F)P(=O)(O)O)ccc2s1 [Compound 786, (difluoro(2-(((3S,6S,10aS)-5-oxo-3-(4-azaspiro[2.4]heptane-4-carbonyl)decahydropyrrolo[1,2-a]azocin-6-yl)carbamoyl)benzo [b]thiophen-5-yl)methyl) phosphonic acid]",–
–,–,0.1 to 1,0.3 to 3,"O=C(N[C@H]1CCCC[C@H]2CC[C@@H](C(=O)N3CCN(C(=O)c4cn[nH]c4)CC3)N2C1=O)c1cc2cc(C(F)(F)P(=O)(O)O)ccc2s1 [Compound 118B, ((2-(((3S,6S,10a S)-3-(4-(1H-pyrazole-4-carbonyl)piperazine-1-carbonyl)-5-oxodecahydro-pyrrolo [1,2-a]azocin-6-yl)carbamoyl)benzo[b]thiophen-5-yl)difluoromethyl) phosphonic acid]",–
1 to 10,≤ 0.3,–,–,"O=C(N[C@H]1CCCC[C@H]2CC[C@@H](C(=O)N3C[C@@H](c4cccnc4)CC34CC4)N2C1=O)c1cc2cc([C@H](F)P(=O)(O)O)ccc2s1 (single isomer, unassigned) [Compound 908]",–
–,–,< 0.1,3 to 30,"O=C(N[C@H]1CCCC[C@H]2CC[C@@H](C(=O)N3CC(c4cccnc4)C3)N2C1=O)c1cc2cc(C(F)(F)P(=O)(O)O)ccc2s1 [Compound 117, (difluoro(2-(((3S,6S,10aS)-5-oxo-3-(3-(pyridin-3-yl)azetidine-1-carbonyl)decahydropyrrolo [1,2-a]azocin-6-yl)carbamoyl)benzo[b]thiophen-5-yl)methyl) phosphonic acid]",–
< 0.1,3 to 30,–,–,"CCc1ccncc1C1CN(C(=O)[C@@H]2CC[C@@H]3CCC[C@H](NC(=O)c4cc5cc(C(F)P(=O)(O)O)ccc5s4)C(=O)N32)C1 (stereo partly drawn) [Compound 205, ((2-(((3S,6S,9aS)-3-(3-(4-ethylpyridin-3-yl)azetidine-1-carbonyl)-5-oxooctahydro-1H-pyrrolo[1,2-a]azepin-6-yl)carbamoyl)benzo[b]thiophen-5-yl)fluoromethyl)phosphonic acid]",–
–,–,0.1 to 1,3 to 30,"C[C@]1(NC(=O)c2cc3cc(C(F)(F)P(=O)(O)O)ccc3s2)CCCC[C@H]2CC[C@@H](C(=O)N3CC(C(=O)N4CCOCC4)C3)N2C1=O [Compound 40, (difluoro(2-(((3S,6S,10aS)-6-methyl-3-(3-(morpholine-4-carbonyl)azetidine-1-carbonyl)-5-oxodecahydropyrrolo [1,2-a]azocin-6-yl)carbamoyl)benzo[b]thiophen-5-yl)methyl) phosphonic acid]",–
1 to 10,≤ 0.3,–,–,"CC(C)[C@H]1CC[C@H](NC(=O)c2cc3cc(C(F)P(=O)(O)O)ccc3s2)C(=O)N2[C@H](CC[C@H]2C(=O)N2C[C@@H](C#N)[C@H](c3ccccc3)C2)C1 (single isomer, unassigned) [Compound 238]",–
1 to 10,≤ 0.3,–,–,"N#C[C@H]1[C@H](c2ccccc2)CN(C(=O)[C@@H]2CC[C@@H]3CCCC[C@H](NC(=O)c4cc5cc([C@H](F)P(=O)(O)O)ccc5s4)C(=O)N32)C12CC2 (single isomer, unassigned) [Compound 924]",–
–,–,> 10,> 30,"O=C(N[C@H]1CCCC[C@H]2CCC[C@@H](C(=O)N3CC(n4ccnc4)C3)N2C1=O)c1cc2cc(C(F)(F)P(=O)(O)O)ccc2s1 [Compound 62, ((2-(((4S,7S,11aS)-4-(3-(1H-imidazol-1-yl)azetidine-1-carbonyl)-6-oxodecahydro-2H-pyrido[1,2-a]azocin-7-yl)carbamoyl)benzo[b]thiophen-5-yl)difluoromethyl) phosphonic acid]",–
1 to 10,3 to 30,–,–,"O=C(N[C@H]1CCC[C@H]2CC[C@@H](C(=O)N3CC(c4cccnc4)C3)N2C1=O)c1cc2cc(CP(=O)(O)O)ncc2s1 [Compound 574, ((2-(((3S,6S,9aS)-5-oxo-3-(3-(pyridin-3-yl)azetidine-1-carbonyl)octahydro-1H-pyrrolo[1,2-a]azepin-6-yl)carbamoyl)thieno[2,3-c]pyridin-5-yl)methyl)phosphonic acid]",–
0.1 to 1,3 to 30,–,–,"O=C(N[C@H]1CCC[C@H]2CC[C@@H](C(=O)N3CC(C4COC4)C3)N2C1=O)c1cc2cc(C(F)(F)P(=O)(O)O)ccc2s1 [Compound 785, (difluoro(2-(((3S,6S,9aS)-3-(3-(oxetan-3-yl)azetidine-1-carbonyl)-5-oxooctahydro-1H-pyrrolo[1,2-a]azepin-6-yl)carbamoyl)benzo [b]thiophen-5-yl)methyl) phosphonic acid]",–
0.1 to 1,3 to 30,–,–,"Cc1ccncc1C1CN(C(=O)[C@@H]2CC[C@@H]3C[C@H](C)CC[C@H](NC(=O)c4cc5cc(CP(=O)(O)O)ccc5s4)C(=O)N32)C1 [Compound 656, ((2-(((3S,6S,9R,10aR)-9-methyl-3-(3-(4-methylpyridin-3-yl)azetidine-1-carbonyl)-5-oxodecahydropyrrolo [1,2-a]azocin-6-yl)carbamoyl)benzo [b]thiophen-5-yl)methyl) phosphonic acid]",–
< 0.1,3 to 30,–,–,"O=C(N[C@H]1CCC[C@H]2CC[C@@H](C(=O)N3CC(c4cncnc4N4CCC4)C3)N2C1=O)c1cc2cc(CP(=O)(O)O)ccc2s1 [Compound 681, ((2-(((3S,6S,9aS)-3-(3-(4-(azetidin-1-yl)pyrimidin-5-yl)azetidine-1-carbonyl)-5-oxooctahydro-1H-pyrrolo[1,2-a]azepin-6-yl)carbamoyl)benzo [b]thiophen-5-yl)methyl) phosphonic acid]",–
0.1 to 1,0.3 to 3,–,–,"CC(F)(c1ccc2sc(C(=O)N[C@H]3CCCC[C@H]4CC[C@@H](C(=O)N5CCC(c6cccnc6)C5)N4C3=O)cc2c1)P(=O)(O)O (stereo partly drawn) [Compound 222, (1-fluoro-1-(2-(((3S,6S,10aS)-5-oxo-3-(3-(pyridin-3-yl)pyrrolidine-1-carbonyl)decahydropyrrolo[1,2-a]azocin-6-yl)carbamoyl)benzo[b]thiophen-5-yl)ethyl)phosphonic acid]",–
1 to 10,0.3 to 3,–,–,"C[C@H]1CC[C@H](NC(=O)c2ccc3ccc(CP(=O)(O)O)cc3c2)C(=O)N2[C@H](CC[C@H]2C(=O)N2CC(c3ccccc3)CC23CC3)C1 (stereo partly drawn) [Compound 888, ((7-(((3S,6S,9S,10aR)-9-methyl-5-oxo-3-(6-phenyl-4-azaspiro[2.4]heptane-4-carbonyl)decahydropyrrolo[1,2-a]azocin-6-yl)carbamoyl)naphthalen-2-yl)methyl) phosphonic acid]",–

SMILES,"IC50 [1, 3] [µM]","IC50 [2, 4] [µM]","IC50 [1, 5] [µM]","IC50 [2, 6] [µM]","IC50 ([2]; STAT6 (W123-T658) 250 nM, probe 5-FAM-ApYKPFQDLI-NH2 2 nM, read-out: STAT6 (FP assay IC50 class)) [µM]"
"O=C(N[C@H]1CCC[C@H]2CC[C@@H](C(=O)N3CC(c4cccnc4)C3)N2C1=O)c1cc2cc([C@@H](F)P(=O)(O)O)ccc2s1 [Compound 873, ((S)-fluoro(2-(((3S,6S,9aS)-5-oxo-3-(3-(802yridine-3-yl)azetidine-1-carbonyl)octahydro-1H-pyrrolo[1,2-a]azepin-6-yl)carbamoyl)benzo [b]thiophen-5-yl)methyl) phosphonic acid]",< 0.1,–,–,–,3 to 30
